Among the test systems are PC-3 prostate; NCI/ADR-RES ovarian; HCT-116 colon; A498 renal; OVCAR-4 ovarian; M14 melanoma; SK-MEL-2 melanoma; NCI-H226 lung; SNB-19 CNS; TK-10 renal.
Holding throughout (test): inhibition of tumour cell growth, NCI panel, 48 h

The structures appear in SMILES notation.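 In this assay, cells in 96-well plates receive the compound at five concentrations for 48 hours. Endpoints are linearly interpolated between the surrounding concentrations. GI50 = concentration required for 50% inhibition of growth. TGI is the concentration that stops growth completely.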 Where only a bound is given, the exact number is not on record here.

With `CNCCOc1nc2c3cnccc3cc(-c3cc(OC)c(OC)c(OC)c3)c2c2ccncc12`, the GI50 was 0.0471 µM in the test with PC-3 prostate; 0.344 µM in the test with NCI/ADR-RES ovarian; under 0.0147 µM in the test with HCT-116 colon; 0.0478 µM with A498 renal; 0.161 µM in the test with OVCAR-4 ovarian; 0.0233 µM in the test with M14 melanoma. Further, the GI50 with SK-MEL-2 melanoma is 0.264 µM; in the test with NCI-H226 lung, 0.054 µM; in the test with SNB-19 CNS it was 0.0253 µM; in the test on TK-10 renal it was 0.0686 µM. Besides, the TGI in the test with PC-3 prostate was 1.12 µM; with NCI/ADR-RES ovarian, 2.09 µM; in the test on HCT-116 colon it was 0.175 µM; in the test with A498 renal, 0.163 µM; in the test on OVCAR-4 ovarian, 0.749 µM; in the test on M14 melanoma, 0.147 µM. The TGI with SK-MEL-2 melanoma was determined as 0.683 µM; in the test on NCI-H226 lung, 0.37 µM; with SNB-19 CNS, 0.349 µM; in the test with TK-10 renal, 0.366 µM.
Regarding `N#CC[C@H](C1CCCC1)n1cc(-c2ncnc3[nH]ccc23)cn1`, the GI50 in the test on PC-3 prostate is 35.2 µM; in the test on NCI/ADR-RES ovarian it was 19.4 µM; in the test on HCT-116 colon, 20.2 µM; in the test with A498 renal it was 13.3 µM; with OVCAR-4 ovarian, 20.4 µM; in the test on M14 melanoma it was 30.3 µM. Further, the GI50 in the test with SK-MEL-2 melanoma is 30.5 µM; in the test on NCI-H226 lung, 9.28 µM; with SNB-19 CNS it was 35.2 µM; in the test with TK-10 renal, 13.2 µM. The TGI was over 100 µM in the test on PC-3 prostate; over 100 µM with NCI/ADR-RES ovarian; over 100 µM in the test on HCT-116 colon; 53.8 µM in the test on A498 renal; over 79.1 µM with OVCAR-4 ovarian; over 88.6 µM with M14 melanoma. Moreover, the TGI in the test on SK-MEL-2 melanoma was 78.2 µM; with NCI-H226 lung, over 92.5 µM; in the test on SNB-19 CNS, over 100 µM; with TK-10 renal, over 100 µM.
Turning to `COC(=O)Nc1nc2ccc(Sc3ccccc3)cc2[nH]1`, the GI50 is 0.214 µM with PC-3 prostate; 0.0674 µM in the test with NCI/ADR-RES ovarian; 0.0771 µM with HCT-116 colon; 0.14 µM in the test on A498 renal; 0.856 µM in the test with OVCAR-4 ovarian; 0.0892 µM with M14 melanoma. Moreover, the GI50 in the test on SK-MEL-2 melanoma was 0.162 µM; in the test with NCI-H226 lung it was 0.291 µM; with SNB-19 CNS it was 0.267 µM; in the test on TK-10 renal, 1.27 µM. The TGI was over 37.4 µM with PC-3 prostate; 0.461 µM in the test with NCI/ADR-RES ovarian; 10.1 µM in the test on HCT-116 colon; 6.4 µM in the test on A498 renal; 6.34 µM with OVCAR-4 ovarian; 1.43 µM in the test on M14 melanoma. Further, the TGI in the test with SK-MEL-2 melanoma stood at 2.88 µM; with NCI-H226 lung, 1.7 µM; with SNB-19 CNS it was 28.9 µM; in the test with TK-10 renal it was 17.3 µM.
Consider `CCOC(=O)C(Cc1ccc(OC)cc1)C(=O)OCC`, for which the GI50 with PC-3 prostate was 5.08 µM; in the test with NCI/ADR-RES ovarian, 3.77 µM; with HCT-116 colon it was 4.45 µM; with A498 renal, 6.54 µM; in the test on OVCAR-4 ovarian, 6.23 µM; in the test with M14 melanoma, 8.17 µM. For the same molecule, the GI50 in the test on SK-MEL-2 melanoma was 2.64 µM; with NCI-H226 lung, 12.4 µM; in the test with SNB-19 CNS it was 4.82 µM; with TK-10 renal, 8.22 µM. For the same molecule, the TGI with PC-3 prostate was 32.4 µM; in the test on NCI/ADR-RES ovarian it was 19 µM; with HCT-116 colon, 15.6 µM; in the test with A498 renal, 21.4 µM; in the test on OVCAR-4 ovarian, 26.5 µM; in the test on M14 melanoma, 20.7 µM. Moreover, the TGI came to 8.66 µM in the test with SK-MEL-2 melanoma, 30.3 µM in the test with NCI-H226 lung, 17.4 µM in the test with SNB-19 CNS and 26.2 µM with TK-10 renal.
As for `NC(=O)NC(=O)C1CCCCC1C(=O)O` (stereo not given), the TGI with PC-3 prostate, with NCI/ADR-RES ovarian, in the test on HCT-116 colon, in the test with A498 renal, with OVCAR-4 ovarian and with M14 melanoma was over 100 µM in each case. In addition, the TGI with SK-MEL-2 melanoma, in the test on NCI-H226 lung, in the test on SNB-19 CNS and with TK-10 renal was over 100 µM in each case.
In the case of `CC(C)CNc1nc(N=[N+]=[N-])nc(NCC(C)C)n1`, the GI50 in the test with PC-3 prostate, in the test with NCI/ADR-RES ovarian, with HCT-116 colon, in the test on A498 renal, in the test with OVCAR-4 ovarian and in the test with M14 melanoma was over 10 µM in each case. The GI50 with SK-MEL-2 melanoma, in the test with NCI-H226 lung, in the test on SNB-19 CNS and in the test with TK-10 renal was over 10 µM each time. For the same molecule, the TGI with PC-3 prostate, in the test on NCI/ADR-RES ovarian, in the test with HCT-116 colon, with A498 renal, with OVCAR-4 ovarian and with M14 melanoma was over 10 µM throughout. Also, the TGI in the test with SK-MEL-2 melanoma, with NCI-H226 lung, in the test on SNB-19 CNS and in the test with TK-10 renal was over 10 µM in each case.
As to `C[C@@H](Oc1cc(-c2cnn(C3CC4(CCCNC4)C3)c2)cnc1N)c1c(Cl)ccc(F)c1Cl` (stereo not given in full), the GI50 with PC-3 prostate is 1.25 µM; with NCI/ADR-RES ovarian, 2.25 µM; in the test on HCT-116 colon, 0.741 µM; with A498 renal, 0.532 µM; with OVCAR-4 ovarian, 1.85 µM; in the test on M14 melanoma, 1.25 µM. Moreover, the GI50 with SK-MEL-2 melanoma was 1.69 µM; in the test on NCI-H226 lung, 2.29 µM; in the test with SNB-19 CNS, 3.32 µM; with TK-10 renal, 2.02 µM. In addition, the TGI stood at 6.83 µM with PC-3 prostate; 5.59 µM with NCI/ADR-RES ovarian; 2.23 µM in the test on HCT-116 colon; 2.53 µM with A498 renal; 5.56 µM in the test with OVCAR-4 ovarian; 2.66 µM in the test with M14 melanoma. The TGI stood at 3.24 µM in the test with SK-MEL-2 melanoma, 9.76 µM in the test on NCI-H226 lung, 14.4 µM with SNB-19 CNS and 5.47 µM in the test on TK-10 renal.

Values taken from PubChem BioAssay (NCI).
